Reference: article PMC10608985, “Retention Behavior of Anticancer Thiosemicarbazides in Biomimetic Chromatographic Systems and In Silico Calculations” (Molecules, 2023)

Assays:
[1] = HPLC lipophilicity on cholesterol (Chol) stationary phase; format: physicochemical; settings: pH 7.4; for Log k Chol: Table S3; for log kw Chol: intercept, linear extrapolation to water; for log kw Chol / -S Chol: MeOH/20 mM acetate buffer; for -S Chol: slope of Soczewiński–Wachtmeister equation
Summary of the method: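 Cholesterol-bonded column run isocratically with MeOH/20 mM acetate buffer at pH 7.4, MeOH fraction 0.3–0.8 (v/v), 0.35 mL/min, room temperature, UV 280 nm. t0 from citric acid; log kw (intercept) and slope S from Soczewiński–Wachtmeister regression of log k against modifier content.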

[2] = system: α1-acid glycoprotein (AGP); test: HPLC on immobilized AGP column, affinity and % plasma–protein binding; format: in vitro ADME, human; settings: for log K AGP: binding equilibrium constant from calibration curve (Equation 9) of log k AGP; for fraction unbound: human, pH 7.4, % plasma–protein binding converted from log K AGP (Equation 10), read-out: %PPB AGP (converted); for log k AGP: retention on AGP column, 50 mM ammonium acetate pH 7.4 / propan-2-ol 85/15 (v/v)
Summary of the method: (§1)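 Retention (log k) on immobilized-protein HPLC columns, 50 mM ammonium acetate pH 7.4 with propan-2-ol (85/15 for AGP), UV 280 nm, room temperature. log K read from drug calibration curves, then converted to %PPB.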

[3] = target: T1, human serum albumin (HSA) (Homo sapiens, UniProt P02768); test: HPLC on immobilized HSA column, affinity and % plasma–protein binding; format: in vitro ADME; settings: for log K HSA: binding equilibrium constant from calibration curve (Equation 8) of log k HSA; for log k HSA: retention on HSA column, 50 mM ammonium acetate pH 7.4 / propan-2-ol 85/15 (v/v); for fraction unbound: human, pH 7.4, % plasma–protein binding converted from log K HSA (Equation 10), read-out: %PPB HSA (converted)
T1 construct: purchased Chiralpac
T1 sequence (P02768 25-609): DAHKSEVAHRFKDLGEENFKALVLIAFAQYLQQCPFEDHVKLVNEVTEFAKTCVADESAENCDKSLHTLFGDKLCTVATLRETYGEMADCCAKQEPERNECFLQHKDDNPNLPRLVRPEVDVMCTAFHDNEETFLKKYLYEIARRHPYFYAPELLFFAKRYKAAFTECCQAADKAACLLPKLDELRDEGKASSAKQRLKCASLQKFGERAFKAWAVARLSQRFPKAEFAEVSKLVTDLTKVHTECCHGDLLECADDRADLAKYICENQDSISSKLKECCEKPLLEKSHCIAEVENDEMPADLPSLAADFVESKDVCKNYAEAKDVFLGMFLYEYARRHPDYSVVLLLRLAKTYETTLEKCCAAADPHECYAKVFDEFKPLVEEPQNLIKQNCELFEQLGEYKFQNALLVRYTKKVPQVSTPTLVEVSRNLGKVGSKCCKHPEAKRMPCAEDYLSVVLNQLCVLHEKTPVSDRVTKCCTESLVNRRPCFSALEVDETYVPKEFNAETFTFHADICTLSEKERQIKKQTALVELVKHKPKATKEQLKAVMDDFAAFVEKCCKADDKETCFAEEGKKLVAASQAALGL
Summary of the method: as §1

[4] = HPLC lipophilicity on IAM (immobilized artificial membrane, phosphatidylcholine) stationary phase; format: physicochemical; settings: pH 7.4; for Log k IAM: Table S2; for log kw IAM: intercept, linear extrapolation to water; for log kw IAM / -S IAM: ACN/20 mM phosphate buffer; for -S IAM: slope of Soczewiński–Wachtmeister equation
Summary of the method: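 Rexchrom IAM.PC.DD2 column with ACN/20 mM phosphate buffer pH 7.4 (0.15 M KCl), ACN fraction 0.05–0.4 v/v at 0.05 steps, 1 mL/min, UV 280 nm, room temperature; t0 from citric acid. log kw and slope S extrapolated via Soczewiński–Wachtmeister equation.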

[5] = set-up: method as in Kozyra et al. [31]; settings: MeOH/20 mM acetate buffer, pH 7.4, ref Kozyra et al. [31], cited from earlier work; for log kw C-18: intercept of Soczewiński–Wachtmeister equation (water as mobile phase); for -S C-18: slope of Soczewiński–Wachtmeister equation

Compound | Log k Chol ([1]; MeOH 0.45 v/v in mobile phase) | Log k Chol ([1]; MeOH 0.50 v/v in mobile phase) | Log k Chol ([1]; MeOH 0.60 v/v in mobile phase) | Log k Chol ([1]; MeOH 0.70 v/v in mobile phase) | Log k Chol ([1]; MeOH 0.80 v/v in mobile phase) | log kw Chol [1] | -S Chol [1] | log K AGP [2] | fraction unbound [2] | log k AGP [2] | log K HSA [3] | log k HSA [3] | Log k IAM ([4]; ACN 0.15 v/v in mobile phase) | Log k IAM ([4]; ACN 0.20 v/v in mobile phase) | Log k IAM ([4]; ACN 0.25 v/v in mobile phase) | Log k IAM ([4]; ACN 0.30 v/v in mobile phase) | Log k IAM ([4]; ACN 0.35 v/v in mobile phase) | -S IAM [4] | log kw C-18 [5] | -S C-18 [5] | also measured
O=C(COc1ccccc1)NNC(=S)Nc1ccc(I)cc1 [Compound 12] | 1.049 | 0.685 | 0.404 | -0.214 | -0.783 | 3.3300 | 5.0829 | 0.8378 | 0.118 | 0.7465 | 2.1778 | 1.8304 | 1.352 | 0.951 | 0.655 | 0.141 | -0.016 | 6.8364 | 2.9681 | 4.8352 | Log k Chol ([1]; MeOH 0.40 v/v in mobile phase): 1.303; Log k IAM ([4]; ACN 0.40 v/v in mobile phase): -0.358; log kw IAM [4]: 2.3341
O=C(COc1ccccc1)NNC(=S)Nc1ccc(Cl)cc1Cl [Compound 13] | 0.978 | 0.627 | 0.400 | -0.329 | -1.016 | 3.4517 | 5.4505 | 0.5886 | 0.197 | 0.4665 | 1.6879 | 1.3649 | 1.240 | 0.870 | 0.557 | 0.067 | -0.103 | 6.2034 | 3.2152 | 5.1803 | Log k Chol ([1]; MeOH 0.40 v/v in mobile phase): 1.246; fraction unbound [3]: 0.01; Log k IAM ([4]; ACN 0.40 v/v in mobile phase): -0.430
O=C(COc1ccccc1)NNC(=S)Nc1cc(Cl)ccc1Cl [Compound 14] | 1.095 | 0.716 | 0.574 | -0.138 | -0.783 | 3.4243 | 5.1337 | 0.8829 | 0.107 | 0.7971 | 2.2183 | 1.8689 | 1.494 | 1.133 | 0.710 | 0.154 | -0.027 | 7.6211 | 3.7050 | 5.6376 | Log k IAM ([4]; ACN 0.40 v/v in mobile phase): -0.366; log kw IAM [4]: 2.6121
O=C(COc1ccccc1)NNC(=S)Nc1ccc(Cl)c(Cl)c1 [Compound 15] | 1.349 | 1.013 | 0.792 | -0.087 | -0.876 | 4.2283 | 6.2128 | 0.9150 | 0.099 | 0.8332 | 1.8712 | 1.5391 | 1.542 | 1.032 | 0.667 | 0.158 | -0.062 | 7.5617 | 3.3757 | 5.3305 | fraction unbound [3]: 0.003; Log k IAM ([4]; ACN 0.40 v/v in mobile phase): -0.346; log kw IAM [4]: 2.5780
O=C(COc1ccccc1)NNC(=S)Nc1ccc([N+](=O)[O-])cc1 [Compound 16] | 0.478 | 0.093 | -0.189 |  |  | 2.8538 | 5.2122 | 0.3508 | 0.302 | 0.1994 | 1.7456 | 1.4198 | 0.590 | 0.253 | 0.016 |  | -0.533 | 6.0875 | 2.7200 | 5.1865 | Log k Chol ([1]; MeOH 0.30 v/v in mobile phase): 1.264; Log k Chol ([1]; MeOH 0.35 v/v in mobile phase): 1.082; Log k Chol ([1]; MeOH 0.40 v/v in mobile phase): 0.843; fraction unbound [3]: 0.008; Log k IAM ([4]; ACN 0.05 v/v in mobile phase): 1.287; Log k IAM ([4]; ACN 0.10 v/v in mobile phase): 0.964; log kw IAM [4]: 1.5455
CSc1ccc(NC(=S)NNC(=O)COc2ccccc2)cc1 [Compound 17] | 0.878 | 0.510 | 0.379 | -0.316 | -0.975 | 3.1664 | 5.0386 | 0.6672 | 0.169 | 0.5548 | 1.6830 | 1.3603 | 0.821 | 0.513 | 0.282 | -0.101 | -0.280 | 5.7908 | 2.6753 | 4.6859 | Log k Chol ([1]; MeOH 0.35 v/v in mobile phase): 1.434; Log k Chol ([1]; MeOH 0.40 v/v in mobile phase): 1.108; fraction unbound [3]: 0.011; Log k IAM ([4]; ACN 0.10 v/v in mobile phase): 1.147; log kw IAM [4]: 1.6998
